Calls of active or inactive are those of the source. No cut-off for these calls is given here.
Assays:
RAW264.7 [1] = assay: Antiinflammatory activity in mouse RAW264.7 assessed as decrease in LPS-induced TNF-alpha production at 10 uM pretreated with 1 ug/ml LPS for 22 hrs followed by addition of compound for 24 hrs by ELISA; format: functional, cell-based
RAW264.7 [2] = assay: Antiinflammatory activity in mouse RAW264.7 assessed as decrease in LPS-induced IL-6 production at 10 uM pretreated with 1 ug/ml LPS for 22 hrs followed by addition of compound for 24 hrs by ELISA; format: functional, cell-based
[3] = Octanol/water partition coefficient, logP of the compound by shake flask method; format: physicochemical
RAW264.7 [4] = assay: Cytotoxicity against mouse RAW264.7 cells at 1 to 10 uM for 24 hrs by MTT assay; format: cell-based; conditions: raw264.7, 24 h
RAW264.7 [5] = assay: Cytotoxicity against mouse RAW264.7 cells at 100 uM for 24 hrs by MTT assay; format: cell-based; conditions: raw264.7, 24 h
RAW264.7 [6] = assay: Antiinflammatory activity in mouse RAW264.7 assessed as decrease in LPS-induced IL-6 production pretreated with 1 ug/ml LPS for 22 hrs followed by addition of compound for 24 hrs by ELISA; format: functional, cell-based
RAW264.7 [7] = assay: Antiinflammatory activity in mouse RAW264.7 assessed as inhibition of LPS-induced notch-1 expression at 10 uM pretreated with 1 ug/ml LPS for 22 hrs followed by addition of compound for 24 hrs by Western blot analysis; format: functional, cell-based
RAW264.7 [8] = assay: Antiinflammatory activity in mouse RAW264.7 assessed as decrease in LPS-induced TNF-alpha production pretreated with 1 ug/ml LPS for 22 hrs followed by addition of compound for 24 hrs by ELISA; format: functional, cell-based
RAW264.7 [9] = assay: Antiinflammatory activity in LPS-induced mouse RAW264.7 assessed as inhibition of LPS-induced iNOS expression pretreated with 1 ug/ml LPS for 22 hrs followed by addition of compound for 24 hrs by Western blot analysis; format: functional, cell-based

Compound: COc1ccc2c(c1)c(CC(=O)O)c(C)n2C(=O)c1ccc(Cl)cc1
- Activity (RAW264.7 [1]): Active
- Activity (RAW264.7 [2]): Active

Compound: COc1ccc([C@@H]2CC(=O)c3c(cc(O)c(CN4CCN(CCN5CCOCC5)CC4)c3O)O2)cc1O
- Activity (RAW264.7 [1]): Active
- Activity (RAW264.7 [2]): Active
- logP [3]: 1.18

Compound: COc1ccc(CCNCc2c(O)cc3c(c2O)C(=O)C[C@@H](c2ccc(OC)c(O)c2)O3)cc1
- Activity (RAW264.7 [4]): Non-toxic
- Activity (RAW264.7 [5]): Toxic
- Activity (RAW264.7 [1]): Active
- Activity (RAW264.7 [2]): Active
- logP [3]: 1.56

Compound: COc1ccc([C@@H]2CC(=O)c3c(cc(O)c(CNCCCN4CCOCC4)c3O)O2)cc1O
- Activity (RAW264.7 [1]): Active
- Activity (RAW264.7 [2]): Active
- logP [3]: 1.2

Compound: COc1ccc([C@@H]2CC(=O)c3c(cc(O)c(CN(C)C)c3O)O2)cc1O
- Activity (RAW264.7 [1]): Active
- Activity (RAW264.7 [2]): Active
- logP [3]: 1.03

Compound: COc1ccc([C@@H]2CC(=O)c3c(cc(O)c(CN4CCOCC4)c3O)O2)cc1O
- Activity (RAW264.7 [1]): Active
- Activity (RAW264.7 [2]): Active
- logP [3]: 1.23

Compound: COc1ccc([C@@H]2CC(=O)c3c(cc(O)c(CNC(C)C)c3O)O2)cc1O
- Activity (RAW264.7 [4]): Non-toxic
- Activity (RAW264.7 [6]): Dose-dependent effect
- Activity (RAW264.7 [1]): Active
- Activity (RAW264.7 [2]): Active
- Activity (RAW264.7 [7]): Active
- logP [3]: -0.26
- Activity (RAW264.7 [8]): Dose-dependent effect

Compound: COc1ccc([C@@H]2CC(=O)c3c(cc(O)c(CN4CCN(CCO)CC4)c3O)O2)cc1O
- Activity (RAW264.7 [1]): Active
- Activity (RAW264.7 [2]): Active
- logP [3]: 1.15

Compound: COc1ccc([C@@H]2CC(=O)c3c(O)cc(O)cc3O2)cc1O [HESPERETIN]
- Activity (RAW264.7 [4]): Non-toxic
- Activity (RAW264.7 [1]): Active
- Activity (RAW264.7 [2]): Active
- logP [3]: 2.15

Compound: COc1ccc([C@@H]2CC(=O)c3c(cc(O)c(CN4CCN(C)CC4)c3O)O2)cc1O
- Activity (RAW264.7 [4]): Non-toxic
- Activity (RAW264.7 [1]): Active
- Activity (RAW264.7 [2]): Active
- logP [3]: 1.19

Compound: COc1ccc([C@@H]2CC(=O)c3c(cc(O)c(CNC(C)c4ccccc4)c3O)O2)cc1O (stereo not given in full)
- Activity (RAW264.7 [1]): Active
- Activity (RAW264.7 [2]): Active
- logP [3]: 1.72

Compound: COc1ccc([C@@H]2CC(=O)c3c(cc(O)c(CNCCc4ccc([N+](=O)[O-])cc4)c3O)O2)cc1O
- Activity (RAW264.7 [1]): Active
- Activity (RAW264.7 [2]): Active
- logP [3]: 1.73

Compound: CCN1CCN(Cc2c(O)cc3c(c2O)C(=O)C[C@@H](c2ccc(OC)c(O)c2)O3)CC1
- Activity (RAW264.7 [4]): Non-toxic
- Activity (RAW264.7 [6]): Dose-dependent effect
- Activity (RAW264.7 [5]): Toxic
- Activity (RAW264.7 [1]): Active
- Activity (RAW264.7 [2]): Active
- Activity (RAW264.7 [7]): Active
- logP [3]: -0.75
- Activity (RAW264.7 [8]): Dose-dependent effect

Compound: COc1ccc([C@@H]2CC(=O)c3c(cc(O)c(CNCCc4ccccc4)c3O)O2)cc1O
- Activity (RAW264.7 [4]): Non-toxic
- Activity (RAW264.7 [5]): Toxic
- Activity (RAW264.7 [1]): Active
- Activity (RAW264.7 [2]): Active
- logP [3]: 1.67

Compound: CCN(CC)Cc1c(O)cc2c(c1O)C(=O)C[C@@H](c1ccc(OC)c(O)c1)O2
- Activity (RAW264.7 [4]): Non-toxic
- Activity (RAW264.7 [1]): Active
- Activity (RAW264.7 [2]): Active
- logP [3]: 1.68

Compound: CCC(C)NCc1c(O)cc2c(c1O)C(=O)C[C@@H](c1ccc(OC)c(O)c1)O2 (stereo not given in full)
- Activity (RAW264.7 [1]): Active
- Activity (RAW264.7 [2]): Active
- logP [3]: 0.04

Compound: COc1ccc([C@@H]2CC(=O)c3c(cc(O)c(CNC(C)(C)C)c3O)O2)cc1O
- Activity (RAW264.7 [4]): Non-toxic
- Activity (RAW264.7 [6]): Dose-dependent effect
- Activity (RAW264.7 [5]): Toxic
- Activity (RAW264.7 [9]): Dose-dependent effect
- Activity (RAW264.7 [1]): Active
- Activity (RAW264.7 [2]): Active
- Activity (RAW264.7 [7]): Active
- logP [3]: -0.76
- Activity (RAW264.7 [8]): Dose-dependent effect

Compound: COc1ccc([C@@H]2CC(=O)c3c(cc(O)c(CNCCc4ccc(Cl)cc4)c3O)O2)cc1O
- Activity (RAW264.7 [1]): Active
- Activity (RAW264.7 [2]): Active
- logP [3]: 1.77

— ChEMBL document CHEMBL3763074, “Hesperetin derivatives: Synthesis and anti-inflammatory activity” (Bioorg Med Chem Lett, 2016)
